Source: patent publication US11839679B2, “Gamma-diketones for treatment and prevention of aging skin and wrinkles” (BioSplice Therapeutics, Inc., priority 2014, dated 2023)

Test system: fine lines, wrinkles in the outer canthus of the eyes (crow's feet area)
Test: Change in Roughness and Wrinkle Depth via Visioscan, Example 2
Assay type: in vivo, human
Details: Topical 0.05% in Oil (Cohort 2), 21 test subjects
Source text: Surface Evaluation of Living Skin Visioscan: The Visioscan (Courage and Khazaka) took a direct image of the living skin using a measuring head containing a CCD-camera and two metal halogen lamps positioned opposite each other in order to ensure even illumination of the measuring field on the skin (Skin Pharmacol Appl Skin Physiol (1999), 12(1-2), 1-11 and Cosmetic & Toiletries magazine (2009), 124(6), 51-54). The grey level distribution of the pixels in the image correspond to different phenomena (white pixels represent desquamation on the skin, dark pixels represent lines and wrinkles). The software with the Visioscan automatically calculates skin smoothness, skin roughness, scaliness and wrinkle parameters. Visioscan images were taken at the following time points: Baseline Day 0 (beginning of the study), Week 2, Week 4, Week 8, and Week 12 (end of the test).
The source data was Visioscan and PhotoGrammetrix Image Analysis readings along with subjective assessments, which were totaled and reported as average scores. Photographs were placed side by side as to compare the photographs of before and after application of the test product in the eye area. Wrinkle reduction analysis source data consisted of crow's feet area quantification in relative units (px), collected at baseline and, the week 2, 4, 8 and 12 evaluations. The data obtained via Visioscan and from PhotoGrammetrix Image Analysis was quoted as % differences from baseline at each of the previously described time points. A paired t-test analysis was conducted in order to compare the results of post test product application measurements to baseline measurements where applicable. Statistical significance was established if p≤(α=0.05) was calculated.
Four groups of women were recruited to evaluate and compare the efficacy of four anti-aging test products (targeting the periorbital eye area) intended to reduce the appearance of fine lines, wrinkles in the outer canthus of the eyes (crow's feet area) over a 12 week period. Wrinkle assessment was conducted instrumentally using a Visioscan image analysis system. Effectiveness of the test product was evaluated using panelist self-assessment via questionnaire responses. Each stage in the progression of treatments was photographically documented using High Resolution Scientifically Matched Photography technique. Image analysis was utilized to quantify changes in fine lines and crow's feet condition observed in the Scientifically Matched Photographs.
Subject Selection: • Number: Eighty three subjects (twenty or twenty one per group) to complete the study. • Sex: Females • Race: Caucasian/Asian/Hispanic • Age Range: 40 through 60 years old
Test samples: • Topical 0.15% of Compound #222 in Oil (a 50/50 mixture of Propylene Glycol Dicaprylate/Dicaprate and Caprylic/Capric Triglyceride) (Cohort 1) • Topical 0.05% of Compound #222 in Oil (a 50/50 mixture of Propylene Glycol Dicaprylate/Dicaprate and Caprylic/Capric Triglyceride) (Cohort 2) • Topical 0.15% of Compound #222 in PEG400 (Cohort 3) • Topical 0.05% of Compound #222 in PEG400 (Cohort 4)
The testing protocol and evaluation was the same as in Example 1.

In the case of `O=C(CCC(=O)c1ccc2c(c1)OCO2)c1ccccc1` [#222], the “% Change in Roughness, Mean” value (Week 8 vs baseline) is reported as −32.9%, the “% Change in Roughness, Median” value (Week 8 vs baseline) is reported as −33.9% and the “% Change in Wrinkle Depth, Mean” value (Week 8 vs baseline) is reported as −58.0%. The “% Change in Wrinkle Depth, Median” value (Week 8 vs baseline) was −59.3%, the “Change in Roughness, Mean” value (Week 8 vs baseline) was −0.85 and the “Change in Roughness, Median” value (Week 8 vs baseline) was −0.67. The “Change in Wrinkle Depth (×10^4), Mean” value (Week 8 vs baseline) was −0.89 ×10^4, the “Change in Wrinkle Depth (×10^4), Median” value (Week 8 vs baseline) was −0.79 ×10^4 and the “% Change in Roughness, Mean” value (Week 12 vs baseline) was −39.3%. For the same compound, the “% Change in Roughness, Median” value (Week 12 vs baseline) was −40.9%, the “% Change in Wrinkle Depth, Mean” value (Week 12 vs baseline) was −54.1% and the “% Change in Wrinkle Depth, Median” value (Week 12 vs baseline) was −63.5%. The “Change in Roughness, Mean” value (Week 12 vs baseline) was −1.01, the “Change in Roughness, Median” value (Week 12 vs baseline) was −0.79 and the “Change in Wrinkle Depth (×10^4), Mean” value (Week 12 vs baseline) was −0.92 ×10^4. For the same compound, the “Change in Wrinkle Depth (×10^4), Median” value (Week 12 vs baseline) was −0.85 ×10^4.
